Measurements reported in ChEMBL document CHEMBL1201861, “Genomics of Drug Sensitity in Cancer screening data, Wellcome Trust Sanger Institute”.

Key:
Assay in all cases: cells
CTV-1 = assay type: functional, cell-based, Homo sapiens; settings: Homo sapiens, CTV-1;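 further: growth inhibition of the cell line, read out with a cell viability assay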
Description: SANGER: Inhibition of human CTV-1 cell growth in a cell viability assay.

DBTRG-05MG = assay type: functional, cell-based; settings: Homo sapiens;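 further: cell viability assay measuring growth inhibition of human DBTRG-05MG cells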
Description: SANGER: Inhibition of human DBTRG-05MG cell growth in a cell viability assay.

DOHH-2 = assay type: functional, cell-based, Homo sapiens; settings: Homo sapiens, DOHH-2;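 further: growth inhibition of human DOHH-2 cells, read out with a cell viability assay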
Description: SANGER: Inhibition of human DOHH-2 cell growth in a cell viability assay.

DU-4475 = assay type: functional, cell-based, Homo sapiens; settings: Homo sapiens, DU-4475
Description: SANGER: Inhibition of human DU-4475 cell growth in a cell viability assay.

EKVX = assay type: functional, cell-based, Homo sapiens; settings: Homo sapiens, EKVX;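 further: growth inhibition of human EKVX cells, read out with a cell viability assay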
Description: SANGER: Inhibition of human EKVX cell growth in a cell viability assay.

ES3 = assay type: functional, cell-based, Homo sapiens; settings: Homo sapiens, ES3;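 further: growth inhibition of ES3 cells, read out with a cell viability assay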
Description: SANGER: Inhibition of human ES3 cell growth in a cell viability assay.

ES4 = assay type: functional, cell-based, Homo sapiens; settings: Homo sapiens, ES4;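 further: growth inhibition of human ES4 cells, read out by a cell viability assay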
Description: SANGER: Inhibition of human ES4 cell growth in a cell viability assay.

EW-16 = assay type: functional, cell-based, Homo sapiens; settings: Homo sapiens, EW-16;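 further: growth inhibition of human EW-16 cells, read out as cell viability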
Description: SANGER: Inhibition of human EW-16 cell growth in a cell viability assay.

GI-1 = assay type: functional, cell-based, Homo sapiens; settings: Homo sapiens, GI-1;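 further: growth inhibition of human GI-1 cells, measured with a cell viability readout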
Description: SANGER: Inhibition of human GI-1 cell growth in a cell viability assay.

HCC2157 = assay type: functional, cell-based, Homo sapiens; settings: Homo sapiens, HCC2157;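 further: growth inhibition of the cancer cell line, read out as cell viability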
Description: SANGER: Inhibition of human HCC2157 cell growth in a cell viability assay.

HDLM-2 = assay type: functional, cell-based, Homo sapiens; settings: Homo sapiens, HDLM-2;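 further: cell viability assay measuring suppression of HDLM-2 proliferation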
Description: SANGER: Inhibition of human HDLM-2 cell growth in a cell viability assay.

HL-60 = assay type: functional, cell-based, Homo sapiens; settings: Homo sapiens, HL-60;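 further: growth inhibition of human HL-60 cells, read out with a cell viability assay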
Description: SANGER: Inhibition of human HL-60 cell growth in a cell viability assay.

HT = assay type: functional, cell-based, Homo sapiens; settings: Homo sapiens, HT
Description: SANGER: Inhibition of human HT cell growth in a cell viability assay.

J-RT3-T3-5 = assay type: functional, cell-based, Homo sapiens; settings: Homo sapiens, J-RT3-T3-5;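 further: cell viability assay measuring growth inhibition of human J-RT3-T3-5 cells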
Description: SANGER: Inhibition of human J-RT3-T3-5 cell growth in a cell viability assay.

JVM-2 = assay type: functional, cell-based, Homo sapiens; settings: Homo sapiens, JVM-2;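 further: growth inhibition of JVM-2 cells determined by a cell viability assay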
Description: SANGER: Inhibition of human JVM-2 cell growth in a cell viability assay.

KARPAS-45 = assay type: functional, cell-based, Homo sapiens; settings: Homo sapiens, KARPAS-45;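 further: inhibition of cell line growth, read out through a viability assay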
Description: SANGER: Inhibition of human KARPAS-45 cell growth in a cell viability assay.

KU812 cell line = assay type: functional, cell-based, Homo sapiens; settings: Homo sapiens, KU812;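 further: growth inhibition of KU812 cells, read out with a cell viability assay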
Description: SANGER: Inhibition of human KU812 cell growth in a cell viability assay.

KURAMOCHI = assay type: functional, cell-based, Homo sapiens; settings: Homo sapiens, KURAMOCHI;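 further: growth inhibition of KURAMOCHI cells, read out with a cell viability assay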
Description: SANGER: Inhibition of human KURAMOCHI cell growth in a cell viability assay.

KY821 = assay type: functional, cell-based, Homo sapiens; settings: Homo sapiens, KY821;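 further: growth inhibition of human KY821 cells, read out by a cell viability assay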
Description: SANGER: Inhibition of human KY821 cell growth in a cell viability assay.

LAMA-84 = assay type: functional, cell-based, Homo sapiens; settings: Homo sapiens, LAMA-84;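 further: growth inhibition of LAMA-84 cells, read out with a cell viability assay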
Description: SANGER: Inhibition of human LAMA-84 cell growth in a cell viability assay.

LAN-6 = assay type: functional, cell-based, Homo sapiens; settings: Homo sapiens, LAN-6;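 further: growth inhibition of LAN-6 cells, determined with a cell viability assay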
Description: SANGER: Inhibition of human LAN-6 cell growth in a cell viability assay.

LB1047-RCC = assay type: functional, cell-based, Homo sapiens; settings: Homo sapiens, LB1047-RCC;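 further: inhibition of cell growth, determined with a cell viability assay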
Description: SANGER: Inhibition of human LB1047-RCC cell growth in a cell viability assay.

LB771-HNC = assay type: functional, cell-based; settings: Homo sapiens;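 further: growth inhibition of LB771-HNC human cells, read out with a cell viability assay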
Description: SANGER: Inhibition of human LB771-HNC cell growth in a cell viability assay.

LC-2-ad = assay type: functional, cell-based, Homo sapiens; settings: Homo sapiens, LC-2-ad;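 further: growth inhibition of human LC-2-ad cells, read out with a cell viability assay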
Description: SANGER: Inhibition of human LC-2-ad cell growth in a cell viability assay.

LNCaP-Clone-FGC = assay type: functional, cell-based, Homo sapiens; settings: Homo sapiens, LNCaP-Clone-FGC
Description: SANGER: Inhibition of human LNCaP-Clone-FGC cell growth in a cell viability assay.

LS-411N = assay type: functional, cell-based, Homo sapiens; settings: Homo sapiens, LS-411N
LU-134-A = assay type: functional, cell-based, Homo sapiens; settings: Homo sapiens, LU-134-A
Description: SANGER: Inhibition of human LU-134-A cell growth in a cell viability assay.

MC116 = assay type: functional, cell-based, Homo sapiens; settings: Homo sapiens, MC116;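 further: growth inhibition of MC116 cells, read out with a cell viability assay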
Description: SANGER: Inhibition of human MC116 cell growth in a cell viability assay.

NB10 = assay type: functional, cell-based, Homo sapiens; settings: Homo sapiens, NB10;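 further: growth inhibition of NB10 cells, read out by a cell viability assay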
Description: SANGER: Inhibition of human NB10 cell growth in a cell viability assay.

NCI-H1155 = assay type: functional, cell-based, Homo sapiens; settings: Homo sapiens, NCI-H1155;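 further: cell growth inhibition measured by a viability assay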
Description: SANGER: Inhibition of human NCI-H1155 cell growth in a cell viability assay.

NCI-H226 = assay type: functional, cell-based, Homo sapiens; settings: Homo sapiens, NCI-H226;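 further: cell viability read-out used to gauge growth inhibition of the cells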
Description: SANGER: Inhibition of human NCI-H226 cell growth in a cell viability assay.

NKM-1 = assay type: functional, cell-based, Homo sapiens; settings: Homo sapiens, NKM-1;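 further: growth inhibition of NKM-1 cells, read out with a cell viability assay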
Description: SANGER: Inhibition of human NKM-1 cell growth in a cell viability assay.

P30-OHK = assay type: functional, cell-based, Homo sapiens; settings: Homo sapiens, P30-OHK;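 further: growth inhibition of the P30-OHK cell line, read out with a cell viability assay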
Description: SANGER: Inhibition of human P30-OHK cell growth in a cell viability assay.

RXF 393 = assay type: functional, cell-based, Homo sapiens; settings: Homo sapiens, RXF 393;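 further: growth inhibition of human RXF 393 cells, read out with a cell viability assay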
Description: SANGER: Inhibition of human RXF393 cell growth in a cell viability assay.

SCH = assay type: functional, cell-based, Homo sapiens; settings: Homo sapiens, SCH;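 further: growth inhibition of human SCH cells, read out in a cell viability assay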
Description: SANGER: Inhibition of human SCH cell growth in a cell viability assay.

SK-PN-DW = assay type: functional, cell-based, Homo sapiens; settings: Homo sapiens, SK-PN-DW;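 further: growth inhibition measured with a viability assay on these cells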
Description: SANGER: Inhibition of human SK-PN-DW cell growth in a cell viability assay.

SK-UT-1 = assay type: functional, cell-based, Homo sapiens; settings: Homo sapiens, SK-UT-1;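 further: growth inhibition of SK-UT-1 cells, measured by a cell viability assay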
Description: SANGER: Inhibition of human SK-UT-1 cell growth in a cell viability assay.

SW756 = assay type: functional, cell-based; settings: Homo sapiens;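 further: growth inhibition of human SW756 cells, read out with a cell viability assay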
Description: SANGER: Inhibition of human SW756 cell growth in a cell viability assay.

SW 954 = assay type: functional, cell-based, Homo sapiens; settings: Homo sapiens, SW 954;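 further: growth inhibition of SW954 human cancer cells, read out as cell viability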
Description: SANGER: Inhibition of human SW954 cell growth in a cell viability assay.

TE-1 = assay type: functional, cell-based, Homo sapiens; settings: Homo sapiens, TE-1
Description: SANGER: Inhibition of human TE-1 cell growth in a cell viability assay.

A253 cell line = assay type: functional, cell-based, Homo sapiens; settings: Homo sapiens, A253;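 further: growth inhibition of A253 cells, read out with a cell viability assay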
Description: SANGER: Inhibition of human A253 cell growth in a cell viability assay.

A4-Fuk = assay type: functional, cell-based, Homo sapiens; settings: Homo sapiens, A4-Fuk;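 further: growth inhibition of A4-Fuk cells, read out by a cell viability assay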
Description: SANGER: Inhibition of human A4-Fuk cell growth in a cell viability assay.

A498 = assay type: functional, cell-based, Homo sapiens; settings: Homo sapiens, A498;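 further: growth inhibition of human A498 cells, read out with a cell viability assay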
Description: SANGER: Inhibition of human A498 cell growth in a cell viability assay.

ACN = assay type: functional, cell-based, Homo sapiens; settings: Homo sapiens, ACN;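 further: growth inhibition of the human ACN cell line, read out via cell viability testing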
Description: SANGER: Inhibition of human ACN cell growth in a cell viability assay.

C-33-A = assay type: functional, cell-based; settings: Homo sapiens;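 further: cell viability assay measuring growth inhibition of C-33-A cells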
Description: SANGER: Inhibition of human C-33-A cell growth in a cell viability assay.

C32 = assay type: functional, cell-based; settings: Homo sapiens;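 further: cell viability assay, with IC50 reflecting inhibition of C32 cell growth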
Description: SANGER: Inhibition of human C32 cell growth in a cell viability assay.

TE-11 = assay type: functional, cell-based; settings: Homo sapiens;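 further: growth inhibition of human TE-11 cells, read out by a cell viability assay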
Description: SANGER: Inhibition of human TE-11 cell growth in a cell viability assay.

TE-12 = assay type: functional, cell-based, Homo sapiens; settings: Homo sapiens, TE-12;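 further: growth inhibition of TE-12 cells, read out by a cell viability assay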
Description: SANGER: Inhibition of human TE-12 cell growth in a cell viability assay.

TGBC24TKB = assay type: functional, cell-based; settings: Homo sapiens;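 further: growth inhibition of human TGBC24TKB cells, read out with a cell viability assay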
Description: SANGER: Inhibition of human TGBC24TKB cell growth in a cell viability assay.

UACC-257 = assay type: functional, cell-based, Homo sapiens; settings: Homo sapiens, UACC-257
Description: SANGER: Inhibition of human UACC-257 cell growth in a cell viability assay.

CAS-1 = assay type: functional, cell-based, Homo sapiens; settings: Homo sapiens, CAS-1;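 further: growth inhibition of CAS-1 cells, measured with a cell viability assay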
Description: SANGER: Inhibition of human CAS-1 cell growth in a cell viability assay.

SMILES: CC1(C)CCC(c2ccc(Cl)cc2)=C(CN2CCN(c3ccc(C(=O)NS(=O)(=O)c4ccc(N[C@H](CCN5CCOCC5)CSc5ccccc5)c(S(=O)(=O)C(F)(F)F)c4)cc3)CC2)C1 [NAVITOCLAX]
- IC50 (CTV-1): > 2 µM
- IC50 (DBTRG-05MG): > 2 µM
- IC50 (DOHH-2): 0.41 µM
- IC50 (DU-4475): 0.654 µM
- IC50 (EKVX): > 2 µM
- IC50 (ES3): > 2 µM
- IC50 (ES4): 1.35 µM
- IC50 (EW-16): 0.813 µM
- IC50 (GI-1): > 2 µM
- IC50 (HCC2157): 1.19 µM
- IC50 (HDLM-2): > 2 µM
- IC50 (HL-60): 0.0291 µM
- IC50 (HT): > 2 µM
- IC50 (J-RT3-T3-5): 0.608 µM
- IC50 (JVM-2): > 2 µM
- IC50 (KARPAS-45): 0.0781 µM
- IC50 (KU812 cell line): > 2 µM
- IC50 (KURAMOCHI): > 2 µM
- IC50 (KY821): 0.0297 µM
- IC50 (LAMA-84): 0.592 µM
- IC50 (LAN-6): > 2 µM
- IC50 (LB1047-RCC): > 2 µM
- IC50 (LB771-HNC): > 2 µM
- IC50 (LC-2-ad): > 2 µM
- IC50 (LNCaP-Clone-FGC): > 2 µM
- IC50 (LS-411N): > 2 µM
- IC50 (LU-134-A): 0.187 µM
- IC50 (MC116): > 2 µM
- IC50 (NB10): > 2 µM
- IC50 (NCI-H1155): > 2 µM
- IC50 (NCI-H226): > 2 µM
- IC50 (NKM-1): 0.017 µM
- IC50 (P30-OHK): 1.05 µM
- IC50 (RXF 393): > 2 µM
- IC50 (SCH): > 2 µM
- IC50 (SK-PN-DW): > 2 µM
- IC50 (SK-UT-1): > 2 µM
- IC50 (SW756): > 2 µM
- IC50 (SW 954): > 2 µM
- IC50 (TE-1): > 2 µM
- IC50 (A253 cell line): > 2 µM
- IC50 (A4-Fuk): > 2 µM
- IC50 (A498): > 2 µM
- IC50 (ACN): > 2 µM
- IC50 (C-33-A): > 2 µM
- IC50 (C32): 1.19 µM
- IC50 (TE-11): > 2 µM
- IC50 (TE-12): > 2 µM
- IC50 (TGBC24TKB): 0.458 µM
- IC50 (UACC-257): > 2 µM
- IC50 (CAS-1): > 2 µM

SMILES: C/C(=C\c1csc(C)n1)[C@@H]1C[C@@H]2O[C@]2(C)CCC[C@H](C)[C@H](O)[C@@H](C)C(=O)C(C)(C)[C@@H](O)CC(=O)O1 [PATUPILONE]
- IC50 (CTV-1): 0.00516 µM
- IC50 (DBTRG-05MG): 0.00586 µM
- IC50 (DOHH-2): 0.00837 µM
- IC50 (DU-4475): 0.00238 µM
- IC50 (EKVX): > 0.032 µM
- IC50 (ES3): 0.015 µM
- IC50 (ES4): 0.000739 µM
- IC50 (EW-16): 0.00106 µM
- IC50 (GI-1): 0.00243 µM
- IC50 (HCC2157): 0.00128 µM
- IC50 (HDLM-2): 0.0195 µM
- IC50 (HL-60): 0.005 µM
- IC50 (HT): 0.0205 µM
- IC50 (J-RT3-T3-5): 0.0135 µM
- IC50 (JVM-2): > 0.032 µM
- IC50 (KARPAS-45): 0.00582 µM
- IC50 (KU812 cell line): 0.00345 µM
- IC50 (KURAMOCHI): 0.00605 µM
- IC50 (KY821): > 0.032 µM
- IC50 (LAMA-84): 0.0189 µM
- IC50 (LAN-6): > 0.032 µM
- IC50 (LB1047-RCC): 0.002 µM
- IC50 (LB771-HNC): 0.00846 µM
- IC50 (LC-2-ad): < 0.000125 µM
- IC50 (LNCaP-Clone-FGC): 0.00426 µM
- IC50 (LS-411N): 0.0236 µM
- IC50 (LU-134-A): 0.0158 µM
- IC50 (MC116): 0.00386 µM
- IC50 (NB10): 0.011 µM
- IC50 (NCI-H1155): > 0.032 µM
- IC50 (NCI-H226): > 0.032 µM
- IC50 (NKM-1): 0.0021 µM
- IC50 (P30-OHK): 0.00449 µM
- IC50 (RXF 393): 0.00341 µM
- IC50 (SCH): > 0.032 µM
- IC50 (SK-PN-DW): 0.00106 µM
- IC50 (SK-UT-1): 0.000892 µM
- IC50 (SW756): > 0.032 µM
- IC50 (SW 954): 0.000436 µM
- IC50 (TE-1): 0.00202 µM
- IC50 (A253 cell line): 0.0103 µM
- IC50 (A4-Fuk): 0.00109 µM
- IC50 (A498): > 0.032 µM
- IC50 (ACN): 0.00107 µM
- IC50 (C-33-A): 0.00327 µM
- IC50 (C32): > 0.032 µM
- IC50 (TE-11): 0.0012 µM
- IC50 (TE-12): 0.00547 µM
- IC50 (TGBC24TKB): 0.00275 µM
- IC50 (UACC-257): 0.0297 µM
- IC50 (CAS-1): 0.0245 µM
